The values below come from US12297238B2, “FimH mutants, compositions therewith and use thereof” (Janssen Pharmaceuticals, Inc., priority 2021, dated 2025).

Holding throughout (conditions): SPR, HBS-N pH 7.4, single cycle kinetics
Assay [1] addresses E. coli FimH lectin domain (FimHLD 23-10, SEQ ID NO: 1) variant R60P-Q133K (Escherichia coli, UniProt P08191, Q154K/R81P/V48A). On the procedure: (§1) To gain a detailed insight into the binding affinity and kinetics of the interaction of FimH lectin domain variants with the n-Heptyl-α-D-mannopyranoside ligand, surface plasmon resonance (SPR) measurements were performed. In brief, the FimH variants were titrated into the Mannoside ligand 5 surface (Rabbani S et al, J Biol. Chem., 2018, 293(5):1835-1849) with the top concentrations of either 3 or 10 μM in HBS-N(0.01 M HEPES, pH 7.4, 0.15 M NaCl, 3 mM EDTA, 0.05% surfactant P20). The proteins were injected from 0.12 to 10 μM or 0.036 to 3.0 μM using a single cycle kinetics injection.
(§2) These mutants were taken as positive controls. […] Additionally, wild-type (WT) FimH lectin domain was taken along as a negative control.
(§3) The variants affinity for binding to mannose was assessed using SPR.

Assay [2] concerns the target E. coli FimH lectin domain (FimHLD 23-10, SEQ ID NO: 1) variant R60P (Escherichia coli, UniProt P08191, R81P/V48A). On the procedure: as §1, §2, §3
The target in assay [3] is E. coli FimH lectin domain (FimHLD 23-10, SEQ ID NO: 1) variant F144V (Escherichia coli, UniProt P08191, F165V/V48A). The protocol:
as §1, §2, §3

Assay [4] deals with E. coli FimH lectin domain (FimHLD 23-10, SEQ ID NO: 1) variant F144V/F71Y (Escherichia coli, UniProt P08191, F165V/F92Y/V48A). On the procedure: as §1, §2, §3
E. coli FimH lectin domain (FimHLD 23-10, SEQ ID NO: 1) variant F144V/F71Y, sequence (P08191 22-180 V48A/F92Y/F165V): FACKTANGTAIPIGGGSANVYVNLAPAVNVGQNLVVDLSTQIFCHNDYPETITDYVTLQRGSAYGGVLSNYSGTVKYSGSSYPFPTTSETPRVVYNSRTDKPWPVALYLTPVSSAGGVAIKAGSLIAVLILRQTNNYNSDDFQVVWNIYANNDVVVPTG
The target in assay [5] is E. coli FimH lectin domain (FimHLD 23-10, SEQ ID NO: 1) variant Q133K (Escherichia coli, UniProt P08191, Q154K/V48A). On the procedure:
as §1, §2, §3

In assay [6] the target is E. coli FimH lectin domain (FimHLD 23-10, SEQ ID NO: 1) variant F71Y (Escherichia coli, UniProt P08191, F92Y/V48A). On the procedure:
as §1, §2, §3

E. coli FimH lectin domain (FimHLD 23-10, SEQ ID NO: 1) variant Q133K, sequence (P08191 22-180 V48A/Q154K): as the sequence (P08191 22-180 V48A/F92Y/F165V) above, with Y71F, Q133K, V144F counted along it
E. coli FimH lectin domain (FimHLD 23-10, SEQ ID NO: 1) variant R60P, sequence (P08191 22-180 V48A/R81P): as the sequence (P08191 22-180 V48A/F92Y/F165V) above, with R60P, Y71F, V144F counted along it
E. coli FimH lectin domain (FimHLD 23-10, SEQ ID NO: 1) variant R60P-Q133K, sequence (P08191 22-180 V48A/R81P/Q154K): as the sequence (P08191 22-180 V48A/F92Y/F165V) above, with R60P, Y71F, Q133K, V144F counted along it
E. coli FimH lectin domain (FimHLD 23-10, SEQ ID NO: 1) variant F144V, sequence (P08191 22-180 V48A/F165V): as the sequence (P08191 22-180 V48A/F92Y/F165V) above, with Y71F counted along it
E. coli FimH lectin domain (FimHLD 23-10, SEQ ID NO: 1) variant F71Y, sequence (P08191 22-180 V48A/F92Y): as the sequence (P08191 22-180 V48A/F92Y/F165V) above, with V144F counted along it

Turning to `CCCCCCCO[C@H]1O[C@H](CO)[C@@H](O)[C@H](O)[C@@H]1O` [n-Heptyl-α-D-mannopyranoside], the “Affinity (KD)” value in assay [1] is “did not bind to mannoside at all”; in assay [2], “low affinity”; in assay [3] it was “completely abolished”; in assay [4], “completely abolished”; in assay [5], “did not bind to mannoside at all”; in assay [6], “some affinity”.
